# Source: patent US8044057B2, “Methods for suppressing an immune response or treating a proliferative disorder” (The United States of America as represented by the …, priority 2003, dated 2011)
# pIC50: −log10 of the molar value.
# Assays:
# Assay type in all cases: cell-based, human
# STAT1 = assay: STAT1-driven luciferase reporter (GAS-luc) in A549 cells; details: 100 mcM LY303511 1 hour before LPS/IFN-γ for 6 hours
# Procedure: (§1) A549 cells were transiently transfected with a reporter vector expressing firefly luciferase driven by STAT1 (GAS-luc, Clontech), and incubated without or with 100 mcM LY303511, rapamycin, 200 ng/ml, or both, for 1 hour before addition of LPS/IFN-γ for 6 hours. STAT1 activity (luciferase activity) was measured in cell lysates (RLU). The data presented are triplicate samples ±SEM, and are representative of two independent experiments.
# as §1, with “presented in FIG. 8” for “presented”, “samples±SEM,” for “samples ±SEM,”
# A549 cells = assay: KI-67 immunostaining in A549 cells; details: 24 hours
# Excerpt: Slides were mounted in solution containing DAPI to stain nuclei. Photos were captured using equal laser intensity and gain.
# AKT [1] = assay: Western blot of phospho-Akt S473 in PASM cells
# Procedure: FIGS. 4A-4D are bar graphs and digital images showing that LY303511 inhibits serum-stimulated phosphorylation of S6K and Akt (FIGS. 4A and 4B), as well as proliferation in PASM cells (FIGS. 4C and 4D). After incubation in serum-free medium for 24 hours, PASM cells were incubated without or with 100 μM LY303511, rapamycin, 200 ng/ml, or 200 nM wortmannin (FIG. 4A), or 0-100 μM LY303511 (FIG. 4B), for 1 hour before the addition of 10% FBS for 30 min and preparation of cell lysates. Equal amounts of protein (20 μg/gel) were separated by SDS-PAGE and transferred to nitrocellulose membranes before immunodetection of phospho-p70 S6 kinase T389 (pS6K) orphospho-Akt S473 (pAkt) by Western blot. Data are from one experiment representative of five.
# HPASM cells were purchased from Clonetics and passaged according to the manufacturer's instructions. Cells were plated in 100 mm dishes, and allowed to grow to near confluence before serum starvation for 24 hours. […] Cells were homogenized and the indicated proteins were detected by Western blot.
# (§2) Measurement of protein phosphorylation: A549 cells were incubated in serum-free medium without or with inhibitors for 1 hour, as indicated, before incubation for 30 minutes with a mixture of LPS, 100 μg/ml (Sigma; St. Louis, Mo.) and IFN-γ, 100 U/ml (Roche; Nutley, N.J.). […] Integrated band densities were quantified using Scion Image beta 3b software.
# AKT [2] = assay: Western blot of phospho-Akt S473 in A549 cells
# Procedure: (§3) A549 cells were treated without or with 100 mcM LY303511, 200 ng/ml rapamycin, or 50 nM wortmannin in serum free media for 1 hour before addition of E. coli lipopolysaccharide (LPS), […] and interferon (IFN)-γ, 100 U/ml (LPS/IFN-γ or “L/I”). Cells were homogenized and the indicated proteins (see Table 1) were detected by Western blot. Western blots are from the same experiment, and representative of three experiments.
# (§4) Measurement of protein phosphorylation: A549 cells were incubated in serum-free medium without or with inhibitors for 1 hour, as indicated, before incubation for 30 minutes with a mixture of LPS, 100 μg/ml (Sigma; St. Louis, Mo.) and IFN-γ, 100 U/ml (Roche; Nutley, N.J.). PASM cells were incubated in serum-free medium without or with inhibitors for 24 h as indicated, before incubation for 30 min with 10% FBS. A549 or PASM cells were washed once with cold PBS and incubated for 15 minutes on ice ih lysis buffer (20 mM Tris pH 8.0, 1% Nonidet P-40, 1 mM EDTA, 5 mM benzamidine, aprotinin, 10 μg/ml, leupeptin, 10 μg/ml, trypsin soybean inhibitor, 1 mM PMSF, 50 mM sodium fluoride, 100 μM sodium orthovanadate, and 1: 100 Sigma phosphatase inhibitor set I containing cantharidin, microcystin LR and bromotetramizole). […] Integrated band densities were quantified using Scion Image beta 3b software.
# P70 S6 kinase = assay: Western blot of phospho-p70 S6 kinase T389 in A549 cells
# Procedure: as §3
# In another experiment, A549 cells were grown to sub-confluence in serum-containing media, and incubated with a vehicle, 100 mcM LY303511, or rapamycin, 200 ng/ml for 0, 12, or 24 hours. Cells were lysed, and proteins separated by SDS-PAGE before transfer to nitrocellulose membranes. Membranes were incubated with antibodies against p27Kip1, p21 Cip1 orphospho-P70 S6 kinase T389.
# Measurement of protein phosphorylation: A549 cells were incubated in serum-free medium without or with inhibitors for 1 hour, as indicated, before incubation for 30 minutes with a mixture of LPS, 100 μg/ml (Sigma; St. Louis, Mo.) and IFN-γ, 100 U/ml (Roche; Nutley, N.J.). PASM cells were incubated in serum-free medium without or with inhibitors for 24 h as indicated, before incubation for 30 min with 10% FBS. A549 or PASM cells were washed once with cold PBS and incubated for 15 minutes on ice ih lysis buffer (20 mM Tris pH 8.0, 1% Nonidet P-40, 1 mM EDTA, 5 mM benzamidine, aprotinin, 10 μg/ml, leupeptin, 10 μg/ml, trypsin soybean inhibitor, 1 mM PMSF, 50 mM sodium fluoride, 100 μM sodium orthovanadate, and 1: 100 Sigma phosphatase inhibitor set I containing cantharidin, microcystin LR and bromotetramizole). After freezing and thawing, lysates were centrifuged for 30 min at 16,000×g before protein measurement and storage at −80° C. Equal amounts of total protein were separated by SDS-PAGE, and transferred to a nitrocellulose membrane, before immunoblotting with primary antibodies as indicated. Membranes were treated with anti-rabbit IgG or anti-mouse IgG antibodies (Promega; Madison, Wis.) linked to horseradish peroxidase, developed using an enhanced chemiluminescence detection kit (SuperSignal West Pico, Pierce; Rockford, Ill.), and exposed to X-ray film, which was scanned using an Epson Expression 636 scanner. Integrated band densities were quantified using Scion Image beta 3b software.
# mTOR [3] = assay: Western blot of phospho-mTOR S2481 (autophosphorylation) in A549 cells; details: 0-100 μM LY303511, LPS/IFN-γ
# Procedure: Cells were reacted with 0-100 μM LY303511 for 1 hour before addition of L/I for 30 min and preparation of cell lysates. Samples (70 μg) of proteins were separated by SDS-PAGE and transferred to nitrocellulose membranes before immunodetection of phospho-p70 S6 kinase T389 (pS6K), phospho-Akt S473 (pAkt), total p70 S6 kinase (S6K), total Akt (Akt), phospho-mTOR S2481 (pmTOR), or total mTOR (mTOR) by Western blot. Positions of protein standards (kDa) are on the right. For the bar graph and digital images shown in FIG. 1D, band density measurements were also represented graphically. Integrated band densities for pmTOR were normalized to those of total mTOR. […]
# A549 cells were treated without or with 100 mcM LY303511, 200 ng/ml rapamycin, or 50 nM wortmannin in serum free media for 1 hour before addition of E. coli lipopolysaccharide (LPS), 1000 mcglml and interferon (IFN)-γ, 100 U/ml (LPS/IFN-γ or “L/I”). Cells were homogenized and the indicated proteins (see Table 1) were detected by Western blot. […]
# as §2
# mTOR [4] = assay: Western blot of phospho-mTOR S2481 in PASM cells
# Procedure: HPASM cells were purchased from Clonetics and passaged according to the manufacturer's instructions. Cells were plated in 100 mm dishes, and allowed to grow to near confluence before serum starvation for 24 hours. Inhibitors were added to the media 1 hour before the addition of 10% FBS for 30 minutes. Cells were homogenized and the indicated proteins were detected by Western blot.
# as §4, with “bromotetramizole). After freezing and thawing, lysates were centrifuged for 30 min at 16,000×g before protein measurement and storage at −80° C.” for “bromotetramizole).”
compound,measurement,setting,value
"O=c1cc(N2CCNCC2)oc2c(-c3ccccc3)cccc12 [LY303511, 2-(4-piperazinyl)-8-phenyl-4H-1-benzopyran-4-one]",STAT1 activation (luciferase activity),STAT1,inhibited STAT1 activation
same,whole cell KI-67 levels,A549 cells,significant decrease in whole cell KI-67 levels
same,pIC50,"AKT [1]; Homo sapiens, pulmonary artery smooth muscle cells, densitometry, read-out: IC50 for inhibition of Akt phosphorylation",4.00 to 5.00
same,phosphorylation of AKT,"AKT [1]; PASM cells, 10% FBS for 30 minutes","inhibits phosphorylation of AKT, albeit to a lesser extent than phosphorylation of p70 S6 kinase"
same,inhibition of phosphorylation of Akt,AKT [2]; even at 100 mcM,does not inhibit phosphorylation of Akt
same,phosphorylation of AKT (S473),"AKT [2]; inhibitors 1 hour before LPS/IFN-γ, Western blot",increase phosphorylation of AKT
same,phosphorylation of P70 S6 kinase at T389,"P70 S6 kinase; A549 cells in serum-containing media, 100 mcM LY303511 or rapamycin 200 ng/ml, 12 and 24 hours",blocked phosphorylation of P70 S6 kinase at T389
same,lowest concentration inhibiting LPS/IFNγ-stimulated mTOR activity and mTOR-dependent phosphorylation of S6K,"P70 S6 kinase; A549 cells, LPS/IFNγ-stimulated",1 µM
same,phosphorylation of P70 S6 kinase (pS6K T389),"P70 S6 kinase; A549 cells, 100 mcM LY303511, rapamycin 200 ng/ml or wortmannin for 1 hour before LPS/IFN-γ, Western blot",blocks phosphorylation of P70 S6 kinase
same,pIC50,"P70 S6 kinase; Homo sapiens, A549 cells, stimulated, densitometric analysis of pS6K phosphoblots, read-out: IC50 for inhibition of S6K phosphorylation",~5.00
same,autophosphorylation of mTOR (S2481),mTOR [3],inhibits autophosphorylation of mTOR in a concentration-dependent fashion
same,serum-stimulated phosphorylation of mTOR at S2481,mTOR [4],inhibited serum-stimulated phosphorylation of mTOR at S2481
